Consider 20 molecules from patent publication US9296762B2, “Complexing agents and corresponding lanthanide complexes” (CISBIO BIOASSAYS, priority 2011, dated 2016).

Data set [1] in a line: UV spectra of the chromophores, maximum absorption wavelength. The data set is classed as physicochemical. Particulars: UV spectrum of chromophore 78, carboxylate function protected in ester form. On the procedure:
Several compounds according to the invention were prepared and their photophysical properties, in particular the wavelengths corresponding to their maximum absorption peaks (λmax), were determined. The structures of these compounds and the results obtained are described in table 2.
The chromophores (similar to compound 78, carboxylate function protected in ester form) were synthesized according to the protocol described in scheme 13, using one of the two approaches “A” or “B” as described in this scheme (including that for the chromophores comprising naphthyl, thiolanyl, imidazolyl and anthracenyl rings or heterocycles). For each chromophore, the UV spectra were recorded and the maximum absorption wavelengths (λmax) were determined and reported in table 2.

The nature of data set [2]: Photophysical properties of symmetrical europium TACN complexes 81. The data set is classed as physicochemical. Particulars: symmetrical europium TACN complex 81 made of three identical chromophores. On the procedure: For certain chromophores, europium complexes according to the invention in which the three chromophores are identical (symmetrical complexes) were prepared using the protocol described in scheme 14, with a TACN macrocycle (the synthetic yields for the intermediate compounds 79, 80 and 81 of scheme 14 were reported in table 2). The photophysical properties of these europium complexes were determined and also reported in this table.

For `COC(=O)c1cc(C#Cc2ccccc2)cc(CO)n1` [reference compound], in data set [1], the “Chromophore 78 λmax (nm)” value is given as 291 nm. On the same count and under the same terms, the value for `COC(=O)c1cc(C#Cc2cccc3ccccc23)cc(CO)n1` was 329 nm. With `COC(=O)c1cc(C#Cc2cncn2C)cc(CO)n1`, in data set [2], the “Complex 81 Quantic yield (%)” value stood at 54% and the “Complex 81 λmax (nm)” value is 333 nm. The “Chromophore 78 λmax (nm)” value in data set [1] is listed as 315 nm. In the same order, the values of `COC(=O)c1cc(C#Cc2cc(OC)c(C)c(OC)c2)cc(CO)n1` are 11%, 336 nm and 319 nm. Regarding `COC(=O)c1cc(C#Cc2ccc(NC(C)=O)cc2C)cc(CO)n1`, the “Chromophore 78 λmax (nm)” value in data set [1] came out at 322 nm. On the same count and under the same terms, then `COC(=O)c1cc(C#Cc2ccc(Oc3ccccc3)cc2)cc(CO)n1`, with 315 nm; and `COC(=O)c1cc(C#Cc2ccc3cc(OC)ccc3c2)cc(CO)n1`, with 335 nm.

On to `COC(=O)c1cc(C#Cc2ccc(NC(=O)c3ccccc3)cc2)cc(CO)n1`, for which the “Chromophore 78 λmax (nm)” value in data set [1] is listed as 323 nm.

For the molecule `COC(=O)c1cc(C#Cc2ccc(OC)cc2OC)cc(CO)n1`, the “Chromophore 78 λmax (nm)” value in data set [1] was 319 nm. Same read-out and setting: then `COC(=O)c1cc(C#Cc2ccc(NC(=O)c3cc(OC)c(OC)c(OC)c3)cc2)cc(CO)n1`, with 324 nm; and `COC(=O)c1cc(C#Cc2ccc(NC(=O)OC(C)(C)C)cc2)cc(CO)n1`, with 326 nm; and `COC(=O)c1cc(C#Cc2ccc(SC)cc2)cc(CO)n1`, with 332 nm.

With `COC(=O)c1cc(C#Cc2ccc(-c3ccccc3)cc2)cc(CO)n1`, the “Chromophore 78 λmax (nm)” value in data set [1] is given as 318 nm. On the same count and under the same terms, the value for `COC(=O)c1cc(C#Cc2ccc(OCC(=O)OC(C)(C)C)cc2)cc(CO)n1` was 318 nm. For the molecule `COC(=O)c1cc(C#Cc2ccc(OC)cc2)cc(CO)n1`, in data set [2], the “Complex 81 Quantic yield (%)” value turned out to be 52% and the “Complex 81 λmax (nm)” value is listed as 333 nm. Besides, the “Chromophore 78 λmax (nm)” value in data set [1] is on record as 320 nm. With `COC(=O)c1cc(C#Cc2ccc(O)cc2)cc(CO)n1`, in data set [1], the “Chromophore 78 λmax (nm)” value is 324 nm. As to `COC(=O)c1cc(C#Cc2ccsc2)cc(CO)n1`, in data set [2], the “Complex 81 Quantic yield (%)” value is on record as 52% and the “Complex 81 λmax (nm)” value is recorded as 323 nm. In data set [1], the “Chromophore 78 λmax (nm)” value was found to be 326 nm.

Turning to `COC(=O)c1cc(C#Cc2ccccc2OC)cc(CO)n1`, in data set [2], the “Complex 81 Quantic yield (%)” value is reported as 46% and the “Complex 81 λmax (nm)” value is given as 336 nm. For the same molecule, the “Chromophore 78 λmax (nm)” value in data set [1] is recorded as 323 nm. Turning to `COC(=O)c1cc(C#Cc2c3ccccc3cc3ccccc23)cc(CO)n1`, the “Chromophore 78 λmax (nm)” value in data set [1] came out at 326 nm. Turning to `COC(=O)c1cc(C#Cc2ccc(OC)cc2C)cc(CO)n1`, in data set [2], the “Complex 81 Quantic yield (%)” value is given as 76% and the “Complex 81 λmax (nm)” value was 343 nm. Also, in data set [1], the “Chromophore 78 λmax (nm)” value is given as 326 nm.
